Where two headings read alike, the source gives them in different places.
Key:
[1] = test system: Serratia marcescens expressing IMP-1 (CL5741); assay: Antibiotic potentiation activity: synergistic concentration (MITC95) with imipenem, OD600 growth; type: cell-based; details: CL5741 (IMP-1), 95% inhibition of bacterial growth
Procedure, shortened: (§1)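 Steps: colonies grown overnight at 35 °C; resuspended in saline to OD600 0.11–0.15 by strain; diluted 1:100 into 1.1× CAMHB; imipenem then compound added (antibiotic 4 μg/ml in assay); incubated 35 °C for 22–24 h; absorbance measured.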

[2] = test system: Escherichia coli expressing NDM-1 (CLB30016); assay: as above; type: cell-based; details: CLB30016 (NDM-1), 95% inhibition of bacterial growth
Procedure, shortened: as §1

[3] = test system: Klebsiella pneumoniae expressing VIM-1 (IHMA599644); assay: as above; type: cell-based; details: IHMA599644 (VIM-1), 95% inhibition of bacterial growth
Procedure, shortened: as §1

VIM-1 = VIM-1 (Pseudomonas aeruginosa (strain ATCC 15692 / DSM 22644 / CIP 104116 / JCM 14847 / LMG 12228 / 1C / PRS 101 / PAO1), UniProt A0A0F7KYQ8); assay: Enzyme activity: determination of IC50, fluorescence assay with CCF2-FA substrate (VIM-1); type: biochemical
IMP-1 = IMP-1 (Serratia marcescens, UniProt P52699); assay: biochemical; type: biochemical; details: fluorescence assay with CCF2-FA substrate; read-out: IMP-1 IC50
NDM-1 = NDM-1 (Klebsiella pneumoniae, UniProt C7C422); assay: biochemical; type: biochemical; details: fluorescence assay with CCF2-FA substrate; read-out: NDM-1 IC50
[4] = fluorescence assay with CCF2-FA substrate, read-out: VIM-1 IC50
[5] = VIM-1 IC50, fluorescence assay with CCF2-FA substrate

Sequence of NDM-1 (C7C422 whole entry, looked up, species assumed): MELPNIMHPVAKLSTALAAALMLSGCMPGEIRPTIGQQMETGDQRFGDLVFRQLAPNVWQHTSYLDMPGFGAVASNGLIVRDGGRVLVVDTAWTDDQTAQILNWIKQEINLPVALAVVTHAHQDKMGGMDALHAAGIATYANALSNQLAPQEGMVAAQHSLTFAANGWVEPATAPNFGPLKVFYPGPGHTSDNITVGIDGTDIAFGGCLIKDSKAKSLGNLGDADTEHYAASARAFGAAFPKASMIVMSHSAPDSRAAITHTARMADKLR
Sequence of IMP-1 (P52699 whole entry, looked up): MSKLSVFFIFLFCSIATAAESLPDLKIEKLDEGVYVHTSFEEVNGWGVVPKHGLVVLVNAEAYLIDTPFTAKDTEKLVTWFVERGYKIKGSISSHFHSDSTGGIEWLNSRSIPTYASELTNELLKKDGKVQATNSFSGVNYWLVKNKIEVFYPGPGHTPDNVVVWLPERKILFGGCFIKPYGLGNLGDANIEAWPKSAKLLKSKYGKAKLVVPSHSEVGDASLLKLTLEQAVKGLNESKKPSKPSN

| Compound | Serratia marcescens MITC95 [1] | Escherichia coli MITC95 [2] | Klebsiella pneumoniae MITC95 [3] | IC50 (VIM-1; [4]) | IC50 (IMP-1) | IC50 (NDM-1) | IC50 (VIM-1; [5]) |
| --- | --- | --- | --- | --- | --- | --- | --- |
| NS(=O)(=O)c1c(C(F)(F)F)ccc(N2CCN(CCCO)CC2)c1-c1nnn[nH]1 [Example 763, 3-[4-(3-hydroxypropyl)piperazin-1-yl]-2-(1H-tetrazol-5-yl)-6-(trifluoromethyl) benzenesulfonamide] | 3.125 µM | 1.563 µM | 50 µM | 73.6 nM | 46.4 nM | 37.7 nM | – |
| Nc1nnc(C2CCN(c3ccc(C(F)(F)F)c(S(N)(=O)=O)c3-c3nnn[nH]3)CC2)s1 [Example 764, 3-[4-(5-amino-1,3,4-thiadiazol-2-yl)piperidin-1-yl]-2-(1H-tetrazol-5-yl)-6-(trifluoromethyl) benzenesulfonamide] | 50 µM | 100 µM | >200 µM | – | 68.7 nM | 273 nM | 27.7 nM |
| NCCCCN1CCN(c2ccc(C(F)(F)F)c(S(N)(=O)=O)c2-c2nnn[nH]2)CC1 [Example 765, 3-[4-(4-aminobutyl)piperazin-1-yl]-2-(1H-tetrazol-5-yl)-6-(trifluoromethyl) benzenesulfonamide] | 3.125 µM | 6.25 µM | 25 µM | 125 nM | 131 nM | 93.3 nM | – |
| NC1(C2CCN(c3ccc(C(F)(F)F)c(S(N)(=O)=O)c3-c3nnn[nH]3)C2)CC1 (stereo not drawn) [Example 766, 3-[3-(1-aminocyclopropyl)pyrrolidin-1-yl]-2-(1H-tetrazol-5-yl)-6-(trifluoromethyl) benzenesulfonamide] | 25 µM | 25 µM | 12.5 µM | – | 120 nM | 134 nM | 8.52 nM |
| NC1CCC2CN(c3ccc(C(F)(F)F)c(S(N)(=O)=O)c3-c3nnn[nH]3)CC2C1 (stereo not drawn) [Example 767, 3-(5-aminooctahydro-2H-isoindol-2-yl)-2-(1H-tetrazol-5-yl)-6-(trifluoromethyl) benzenesulfonamide] | 50 µM | 200 µM | 12.5 µM | 4.58 nM | 223 nM | 208 nM | – |
| NS(=O)(=O)c1c(C(F)(F)F)ccc(N2CCCC(CCCO)C2)c1-c1nnn[nH]1 (stereo not drawn) [Example 769, 3-[3-(3-hydroxypropyl)piperidin-1-yl]-2-(1H-tetrazol-5-yl)-6-(trifluoromethyl) benzenesulfonamide] | 25 µM | 100 µM | 50 µM | 0.998 nM | 11.4 nM | 7.48 nM | – |
| NS(=O)(=O)c1c(C(F)(F)F)ccc(N2CCC(N3CCNCC3)C2)c1-c1nnn[nH]1 (stereo not drawn) [Example 770, 3-(3-piperazin-1-ylpyrrolidin-1-yl)-2-(1H-tetrazol-5-yl)-6-(trifluoromethyl) benzenesulfonamide] | 50 µM | 50 µM | 3.125 µM | 7.51 nM | 251 nM | 366 nM | – |
| NS(=O)(=O)c1c(C(F)(F)F)ccc(N2CCC3(CCNCC3)C2)c1-c1nnn[nH]1 [Example 771, 3-(2,8-diazaspiro[4.5]dec-2-yl)-2-(1H-tetrazol-5-yl)-6-(trifluoromethyl) benzenesulfonamide] | 50 µM | 25 µM | 50 µM | 22.9 nM | 227 nM | 30.7 nM | – |
| NS(=O)(=O)c1c(C(F)(F)F)ccc(N2CCCC3(CCNCC3)C2)c1-c1nnn[nH]1 [Example 772, 3-(2,9-diazaspiro[5.5]undec-2-yl)-2-(1H-tetrazol-5-yl)-6-(trifluoromethyl) benzenesulfonamide] | 50 µM | 12.5 µM | 50 µM | 13.9 nM | 114 nM | 33.9 nM | – |
| NS(=O)(=O)c1c(C(F)(F)F)ccc(N2CC[C@H]3NCCO[C@@H]3C2)c1-c1nnn[nH]1 [Example 773, 3-[(4aR,8aR)-octahydro-6H-pyrido[3,4-b][1,4]oxazin-6-yl]-2-(1H-tetrazol-5-yl)-6-(trifluoromethyl) benzenesulfonamide] | 6.25 µM | 6.25 µM | 3.125 µM | 1.11 nM | 17.2 nM | 31.8 nM | – |
| NS(=O)(=O)c1c(C(F)(F)F)ccc(N2CCC(C3CCNCC3)C2)c1-c1nnn[nH]1 (stereo not drawn) [Example 774, 3-(3-piperidin-4-ylpyrrolidin-1-yl)-2-(1H-tetrazol-5-yl)-6-(trifluoromethyl) benzenesulfonamide] | 25 µM | 25 µM | 6.25 µM | – | 29.1 nM | 62.6 nM | 1.35 nM |
| NS(=O)(=O)c1c(C(F)(F)F)ccc(N2CCC3(CCNC3)CC2)c1-c1nnn[nH]1 [Example 775, 3-(2,8-diazaspiro[4.5]dec-8-yl)-2-(1H-tetrazol-5-yl)-6-(trifluoromethyl) benzenesulfonamide] | 6.25 µM | 3.125 µM | 12.5 µM | 5.19 nM | 35.8 nM | 9.04 nM | – |
| NS(=O)(=O)c1c(C(F)(F)F)ccc(N2CCC3(CCCNC3)CC2)c1-c1nnn[nH]1 [Example 776, 3-(2,9-diazaspiro[5.5]undec-9-yl)-2-(1H-tetrazol-5-yl)-6-(trifluoromethyl) benzenesulfonamide] | 50 µM | 25 µM | 25 µM | 15.9 nM | 55.9 nM | 15.2 nM | – |
| NS(=O)(=O)c1c(C(F)(F)F)ccc(NC2(C3CCNC3)CC2)c1-c1nnn[nH]1 (stereo not drawn) [Example 777, 3-[(1-pyrrolidin-3-ylcyclopropyl)amino]-2-(1H-tetrazol-5-yl)-6-(trifluoromethyl) benzenesulfonamide] | 12.5 µM | 12.5 µM | 6.25 µM | 6.73 nM | 51.3 nM | 23.3 nM | – |
| NC1CCN(c2ccc(C(F)(F)F)c(S(N)(=O)=O)c2-c2nnn[nH]2)CC1 [Example 778, 3-(4-amino-1-piperidyl)-2-(1H-tetrazol-5-yl)-6-(trifluoromethyl) benzenesulfonamide] | 1.563 µM | 3.125 µM | 1.172 µM | 0.688 nM | 160 nM | 147 nM | – |
| NS(=O)(=O)c1c(C(F)(F)F)ccc(N2CCC(C3CCNCC3)CC2)c1-c1nnn[nH]1 [Example 779, 3-[4-(4-piperidyl)-1-piperidyl]-2-(1H-tetrazol-5-yl)-6-(trifluoromethyl) benzenesulfonamide] | 0.3906 µM | 1.172 µM | 2.344 µM | 0.11 nM | 6.7 nM | 6.42 nM | – |
| NS(=O)(=O)c1c(C(F)(F)F)ccc(N2CCC(N3CCNCC3)CC2)c1-c1nnn[nH]1 [Example 780, 3-(4-piperazin-1-yl-1-piperidyl)-2-(1H-tetrazol-5-yl)-6-(trifluoromethyl) benzenesulfonamide] | 1.563 µM | 1.563 µM | 2.344 µM | 0.274 nM | 31.7 nM | 17.7 nM | – |
| NS(=O)(=O)c1c(C(F)(F)F)ccc(N2CCC3(CCNCC3)CC2)c1-c1nnn[nH]1 [Example 783, 3-(3,9-diazaspiro[5.5]undecan-3-yl)-2-(1H-tetrazol-5-yl)-6-(trifluoromethyl) benzenesulfonamide] | 0.5859 µM | 1.172 µM | 2.344 µM | 1.93 nM | 13.4 nM | 4.91 nM | – |
| CN(C)c1ccc(C(F)(F)F)c(S(N)(=O)=O)c1-c1nnn[nH]1 [Example 784, 3-(dimethylamino)-2-(1H-tetrazol-5-yl)-6-(trifluoromethyl) benzenesulfonamide] | 3.125 µM | 3.125 µM | 31.25 µM | 15.5 nM | 48.3 nM | 41.7 nM | – |
| NS(=O)(=O)c1c(C(F)(F)F)ccc(-c2ccc(C3CCN(C4CCNCC4)CC3)cc2)c1-c1nnn[nH]1 [Example 785, 4′-(1,4′-bipiperidin-4-yl)-2-(1H-tetrazol-5-yl)-4-(trifluoromethyl)biphenyl-3-sulfonamide] | 3.125 µM | 1.563 µM | 25 µM | 12.2 nM | 1.09 nM | 4.21 nM | – |
